In PubChem BioAssay AID1259407 (Chemical Carcinogenesis Research Information System (CCRIS), 2018):
The source made the active and inactive calls. The rule behind the calls is not given here.

System: CCRIS mutagenicity, Ames/micronucleus/aberration tests
Assay: CCRIS mutagenicity studies
[1] = Test System: AMES SALMONELLA TYPHIMURIUM, Strain/Indicator: TA97, Metabolic Activation: HAMSTER, LIVER, S-9, AROCLOR 1254 (10%), Method: PREINCUBATION
[2] = Test System: AMES SALMONELLA TYPHIMURIUM, Strain/Indicator: TA97, Metabolic Activation: HAMSTER, LIVER, S-9, AROCLOR 1254 (30%), Method: PREINCUBATION
[3] = Test System: AMES SALMONELLA TYPHIMURIUM, Strain/Indicator: TA97, Metabolic Activation: NONE, Method: PREINCUBATION
[4] = Test System: AMES SALMONELLA TYPHIMURIUM, Strain/Indicator: TA97, Metabolic Activation: RAT, LIVER, S-9, AROCLOR 1254 (10%), Method: PREINCUBATION
[5] = Test System: AMES SALMONELLA TYPHIMURIUM, Strain/Indicator: TA97, Metabolic Activation: RAT, LIVER, S-9, AROCLOR 1254 (30%), Method: PREINCUBATION
[6] = Test System: AMES SALMONELLA TYPHIMURIUM, Strain/Indicator: TA98, Metabolic Activation: NONE, Method: PREINCUBATION
[7] = Test System: AMES SALMONELLA TYPHIMURIUM, Strain/Indicator: TA100, Metabolic Activation: NONE, Method: PREINCUBATION
[8] = Test System: AMES SALMONELLA TYPHIMURIUM, Strain/Indicator: TA1535, Metabolic Activation: HAMSTER, LIVER, S-9, AROCLOR 1254 (10%), Method: PREINCUBATION
[9] = Test System: AMES SALMONELLA TYPHIMURIUM, Strain/Indicator: TA1535, Metabolic Activation: HAMSTER, LIVER, S-9, AROCLOR 1254 (30%), Method: PREINCUBATION
[10] = Test System: AMES SALMONELLA TYPHIMURIUM, Strain/Indicator: TA1535, Metabolic Activation: NONE, Method: PREINCUBATION
[11] = Test System: AMES SALMONELLA TYPHIMURIUM, Strain/Indicator: TA1535, Metabolic Activation: RAT, LIVER, S-9, AROCLOR 1254 (10%), Method: PREINCUBATION
[12] = Test System: AMES SALMONELLA TYPHIMURIUM, Strain/Indicator: TA1535, Metabolic Activation: RAT, LIVER, S-9, AROCLOR 1254 (30%), Method: PREINCUBATION
[13] = Test System: AMES SALMONELLA TYPHIMURIUM, Strain/Indicator: TA100, Metabolic Activation: RAT, LIVER, S-9, AROCLOR 1254, Method: STANDARD PLATE
[14] = Test System: AMES SALMONELLA TYPHIMURIUM, Strain/Indicator: TA98, Metabolic Activation: NONE, Method: STANDARD PLATE
[15] = Test System: AMES SALMONELLA TYPHIMURIUM, Strain/Indicator: TA100, Metabolic Activation: NONE, Method: STANDARD PLATE

CC(C)CCCCCOC(=O)C[S][Sn]([CH3])([S]CC(=O)OCCCCCC(C)C)[S]CC(=O)OCCCCCC(C)C
mutagenic call [1]: inactive; negative
mutagenic call [2]: inactive; negative
mutagenic call [3]: inactive; negative
mutagenic call [4]: inactive; negative
mutagenic call [5]: inactive; negative
mutagenic call (Test System: AMES SALMONELLA TYPHIMURIUM, Strain/Indicator: TA98, Metabolic Activation: HAMSTER, LIVER, S-9, AROCLOR 1254 (10 OR 30%), Method: PREINCUBATION): inactive; negative
mutagenic call [6]: inactive; negative
mutagenic call (Test System: AMES SALMONELLA TYPHIMURIUM, Strain/Indicator: TA98, Metabolic Activation: RAT, LIVER, S-9, AROCLOR 1254 (10 OR 30%), Method: PREINCUBATION): inactive; negative
mutagenic call (Test System: AMES SALMONELLA TYPHIMURIUM, Strain/Indicator: TA100, Metabolic Activation: HAMSTER, LIVER, S-9, AROCLOR 1254 (10 OR 30%), Method: PREINCUBATION): inactive; negative
mutagenic call [7]: inactive; negative
mutagenic call (Test System: AMES SALMONELLA TYPHIMURIUM, Strain/Indicator: TA100, Metabolic Activation: RAT, LIVER, S-9, AROCLOR 1254 (10 OR 30%), Method: PREINCUBATION): inactive; negative
mutagenic call [8]: inactive; negative
mutagenic call [9]: inactive; negative
mutagenic call [10]: inactive; negative
mutagenic call [11]: inactive; negative
mutagenic call [12]: inactive; negative
mutagenic call (Test System: AMES SALMONELLA TYPHIMURIUM, Strain/Indicator: TA1537, Metabolic Activation: HAMSTER, LIVER, S-9, AROCLOR 1254 (30%), Method: PREINCUBATION): inactive; negative
mutagenic call (Test System: AMES SALMONELLA TYPHIMURIUM, Strain/Indicator: TA1537, Metabolic Activation: NONE, Method: PREINCUBATION): inactive; negative
mutagenic call (Test System: AMES SALMONELLA TYPHIMURIUM, Strain/Indicator: TA1537, Metabolic Activation: RAT, LIVER, S-9, AROCLOR 1254 (30%), Method: PREINCUBATION): inactive; negative

CCc1cc(C(N)=S)ccn1
mutagenic call (End Point: IN VITRO CHROMOSOMAL ABERRATIONS, Test System: CHO CELLS, Metabolic Activation: NONE): inactive; negative; significant increase at 7 mm attributed to precipitation
mutagenic call [1]: inactive; negative
mutagenic call [2]: inactive; negative
mutagenic call [3]: inactive; negative
mutagenic call [4]: inactive; negative
mutagenic call [5]: inactive; negative
mutagenic call (Test System: AMES SALMONELLA TYPHIMURIUM, Strain/Indicator: TA98, Metabolic Activation: HAMSTER, LIVER, S-9, AROCLOR 1254 (10%), Method: PREINCUBATION): inactive; negative
mutagenic call (Test System: AMES SALMONELLA TYPHIMURIUM, Strain/Indicator: TA98, Metabolic Activation: HAMSTER, LIVER, S-9, AROCLOR 1254 (30%), Method: PREINCUBATION): inactive; negative
mutagenic call [6]: inactive; negative
mutagenic call (Test System: AMES SALMONELLA TYPHIMURIUM, Strain/Indicator: TA98, Metabolic Activation: RAT, LIVER, S-9, AROCLOR 1254 (10%), Method: PREINCUBATION): inactive; negative
mutagenic call (Test System: AMES SALMONELLA TYPHIMURIUM, Strain/Indicator: TA98, Metabolic Activation: RAT, LIVER, S-9, AROCLOR 1254 (30%), Method: PREINCUBATION): inactive; negative
mutagenic call (Test System: AMES SALMONELLA TYPHIMURIUM, Strain/Indicator: TA100, Metabolic Activation: HAMSTER, LIVER, S-9, AROCLOR 1254 (10%), Method: PREINCUBATION): inactive; negative
mutagenic call (Test System: AMES SALMONELLA TYPHIMURIUM, Strain/Indicator: TA100, Metabolic Activation: HAMSTER, LIVER, S-9, AROCLOR 1254 (30%), Method: PREINCUBATION): inactive; negative
mutagenic call [7]: inactive; negative
mutagenic call (Test System: AMES SALMONELLA TYPHIMURIUM, Strain/Indicator: TA100, Metabolic Activation: RAT, LIVER, S-9, AROCLOR 1254 (10%), Method: PREINCUBATION): inactive; negative
mutagenic call (Test System: AMES SALMONELLA TYPHIMURIUM, Strain/Indicator: TA100, Metabolic Activation: RAT, LIVER, S-9, AROCLOR 1254 (30%), Method: PREINCUBATION): inactive; negative
mutagenic call [8]: inactive; negative
mutagenic call [9]: inactive; negative
mutagenic call [10]: inactive; negative
mutagenic call [11]: inactive; negative
mutagenic call [12]: inactive; negative

Fc1cccc2cc3c(cc12)-c1cccc2cccc-3c12
mutagenic call [13]: active; positive

O=S(=O)(O)NO
mutagenic call (Test System: AMES SALMONELLA TYPHIMURIUM, Strain/Indicator: G46, Metabolic Activation: RAT, LIVER, S-9, AROCLOR 1254, Method: STANDARD PLATE): inactive; negative
mutagenic call [13]: inactive; negative

CC\C=C/C=C\C=C/C=C\C=C/OCC(O)CO (centres undefined)
mutagenic call [14]: active; positive
mutagenic call [15]: active; positive
mutagenic call (Test System: AMES SALMONELLA TYPHIMURIUM, Strain/Indicator: TA104, Metabolic Activation: NONE, Method: STANDARD PLATE): active; positive

O=c1c2c(O)cc(O)cc2oc2c(O)ccc(O[C@@H]3O[C@H](CO)[C@@H](O)[C@H](O)[C@H]3O)c12
mutagenic call (Test System: AMES SALMONELLA TYPHIMURIUM, Strain/Indicator: TA97, Metabolic Activation: RAT, LIVER, S-9, PHENOBARBITAL AND 5,6-BENZOFLAVONE, BETA-GLUCOSIDASE, Method: PREINCUBATION): active; positive
mutagenic call (Test System: AMES SALMONELLA TYPHIMURIUM, Strain/Indicator: TA98, Metabolic Activation: RAT, LIVER, S-9, PHENOBARBITAL AND 5,6-BENZOFLAVONE, BETA-GLUCOSIDASE, Method: PREINCUBATION): inactive; negative
mutagenic call (Test System: AMES SALMONELLA TYPHIMURIUM, Strain/Indicator: TA100, Metabolic Activation: RAT, LIVER, S-9, PHENOBARBITAL AND 5,6-BENZOFLAVONE, BETA-GLUCOSIDASE, Method: PREINCUBATION): active; positive
mutagenic call (Test System: AMES SALMONELLA TYPHIMURIUM, Strain/Indicator: TA2637, Metabolic Activation: RAT, LIVER, S-9, PHENOBARBITAL AND 5,6-BENZOFLAVONE, BETA-GLUCOSIDASE, Method: PREINCUBATION): active; positive

c1ccc2c(c1)cc1c3c2ccc2cccc(c23)C2NC12 (centres undefined)
mutagenic call [14]: active; positive
mutagenic call (Test System: AMES SALMONELLA TYPHIMURIUM, Strain/Indicator: TA100, Metabolic Activation: MICROSOMAL EPOXIDE HYDROLASE, Method: PREINCUBATION): active; positive
mutagenic call [7]: active; positive
mutagenic call [15]: active; positive
mutagenic call (Test System: CHINESE HAMSTER V-79, Strain/Indicator: V-79/6-THIOGUANINE, Metabolic Activation: NONE, Method: REPLATING): active; positive
mutagenic call (Test System: CHINESE HAMSTER V-79, Strain/Indicator: V-79/6-THIOGUANINE, Metabolic Activation: NONE, Method: STANDARD PLATE): active; positive
mutagenic call (Test System: E. COLI, Strain/Indicator: WP2UVRA, Metabolic Activation: NONE, Method: STANDARD PLATE): active; positive

COC(=O)CN(N=O)C(N)=O
mutagenic call (Test System: E. COLI B, Strain/Indicator: H/R30R, Metabolic Activation: NONE): active; positive
mutagenic call (Test System: E. COLI B, Strain/Indicator: HS30R, Metabolic Activation: NONE): active; positive
